Literature values, collected in patent US7265142B2, “Materials and methods for the treatment of hypertension and angina” (ARYx Therapeutics, priority 2001, dated 2007).

Settings: background statement; patients switched from mibefradil to dihydropyridine CCBs

For `COCC(=O)O[C@]1(CCN(C)CCCc2nc3ccccc3[nH]2)CCc2cc(F)ccc2[C@@H]1C(C)C` [mibefradil], the half-life is listed as “up to 24 hours”.
